Data on 3 compounds can be found in the kinase profiling compilation of Christmann-Franck et al. (2016).

Each structure is given as a SMILES string.

Usually residual activity stands for the signal under treatment as a percentage of the control signal.

Chain of ALK (human) (Q9UM73 whole entry, looked up): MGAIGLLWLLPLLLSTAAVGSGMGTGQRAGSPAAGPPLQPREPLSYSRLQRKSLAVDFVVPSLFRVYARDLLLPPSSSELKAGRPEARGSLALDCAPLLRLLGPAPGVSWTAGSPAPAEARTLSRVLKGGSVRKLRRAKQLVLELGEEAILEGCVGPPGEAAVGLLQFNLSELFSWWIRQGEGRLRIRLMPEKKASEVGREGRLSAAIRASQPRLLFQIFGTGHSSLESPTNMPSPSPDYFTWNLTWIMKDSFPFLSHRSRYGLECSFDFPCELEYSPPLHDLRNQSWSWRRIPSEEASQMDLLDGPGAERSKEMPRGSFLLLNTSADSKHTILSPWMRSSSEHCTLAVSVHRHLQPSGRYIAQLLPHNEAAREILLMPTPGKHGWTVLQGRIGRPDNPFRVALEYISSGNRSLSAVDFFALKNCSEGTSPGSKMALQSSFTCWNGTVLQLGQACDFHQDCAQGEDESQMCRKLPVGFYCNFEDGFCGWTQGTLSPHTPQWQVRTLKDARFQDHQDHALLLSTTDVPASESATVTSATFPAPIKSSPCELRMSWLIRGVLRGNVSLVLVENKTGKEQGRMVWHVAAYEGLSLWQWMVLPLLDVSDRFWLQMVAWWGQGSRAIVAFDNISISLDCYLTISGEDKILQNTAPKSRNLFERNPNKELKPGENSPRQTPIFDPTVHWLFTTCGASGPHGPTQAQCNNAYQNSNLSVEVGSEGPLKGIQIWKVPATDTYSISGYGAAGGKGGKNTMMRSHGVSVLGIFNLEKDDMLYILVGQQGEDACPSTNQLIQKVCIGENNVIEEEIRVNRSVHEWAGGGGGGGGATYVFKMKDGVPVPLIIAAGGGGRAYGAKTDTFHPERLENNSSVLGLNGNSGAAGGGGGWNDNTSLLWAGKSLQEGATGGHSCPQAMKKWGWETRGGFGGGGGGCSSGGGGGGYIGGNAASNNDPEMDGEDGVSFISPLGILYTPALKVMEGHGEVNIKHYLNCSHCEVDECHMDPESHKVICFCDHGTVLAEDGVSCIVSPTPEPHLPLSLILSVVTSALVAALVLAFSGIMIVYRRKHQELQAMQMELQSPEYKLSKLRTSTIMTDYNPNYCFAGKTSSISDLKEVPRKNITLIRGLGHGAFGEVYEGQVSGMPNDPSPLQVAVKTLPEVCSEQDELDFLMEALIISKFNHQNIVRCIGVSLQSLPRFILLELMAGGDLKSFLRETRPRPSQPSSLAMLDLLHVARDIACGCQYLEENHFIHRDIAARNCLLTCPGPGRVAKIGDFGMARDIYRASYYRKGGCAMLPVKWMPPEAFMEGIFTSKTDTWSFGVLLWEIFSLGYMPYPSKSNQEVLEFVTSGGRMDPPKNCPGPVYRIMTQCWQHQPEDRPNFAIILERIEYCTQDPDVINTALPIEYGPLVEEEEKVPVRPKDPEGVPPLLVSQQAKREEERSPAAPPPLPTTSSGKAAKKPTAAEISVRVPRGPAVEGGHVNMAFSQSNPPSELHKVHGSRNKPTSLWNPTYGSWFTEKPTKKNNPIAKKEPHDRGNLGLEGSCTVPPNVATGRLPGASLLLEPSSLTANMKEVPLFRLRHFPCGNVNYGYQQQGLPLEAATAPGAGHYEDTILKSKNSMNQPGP
Chain of CDK2 CCNA2 (human) (P20248 whole entry, looked up, other chains not shown): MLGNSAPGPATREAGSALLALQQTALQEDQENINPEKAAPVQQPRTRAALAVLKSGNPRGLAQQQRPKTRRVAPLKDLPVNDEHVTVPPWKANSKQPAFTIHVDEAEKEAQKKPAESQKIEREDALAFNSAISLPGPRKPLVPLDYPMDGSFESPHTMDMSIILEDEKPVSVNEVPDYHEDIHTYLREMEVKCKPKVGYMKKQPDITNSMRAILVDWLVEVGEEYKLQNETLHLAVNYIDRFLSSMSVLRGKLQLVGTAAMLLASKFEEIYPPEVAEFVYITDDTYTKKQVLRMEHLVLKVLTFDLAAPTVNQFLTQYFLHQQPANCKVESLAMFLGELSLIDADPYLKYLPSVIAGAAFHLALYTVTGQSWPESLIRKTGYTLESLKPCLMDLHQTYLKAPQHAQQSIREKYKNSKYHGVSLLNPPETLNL

One test addresses ACVRL1 (human) (UniProt P37023). In words: radiometric filter-binding kinase assay, Kinase HotSpot. The conditions noted are these: compound 0.5 µM; ATP 10 µM.
On to `Cc1ccc(S(=O)(=O)/C=C/C#N)cc1`, for which the residual activity is 100%.

For the compound `Cc1ccc(NC2=CC(=O)c3sc(C)nc3C2=O)cc1`, the residual activity stood at 101%.

The next test has as its target PHKG2 (human) (UniProt P15735). Described as above. The conditions noted are these: compound 0.5 µM; ATP 10 µM.
As to `CC#CC(=O)Nc1cc2c(Nc3ccc(F)c(Cl)c3)ncnc2cn1`, the residual activity is 99%.

Consider `Cc1ccc(S(=O)(=O)/C=C/C#N)cc1`, for which the residual activity was determined as 109%.

For the compound `Cc1ccc(NC2=CC(=O)c3sc(C)nc3C2=O)cc1`, the residual activity stood at 96.3%.

The target in another test is PRKD1 (human) (UniProt Q15139). The test is described as above. The conditions noted are these: compound 0.5 µM; ATP 10 µM.
As for `CC#CC(=O)Nc1cc2c(Nc3ccc(F)c(Cl)c3)ncnc2cn1`, the residual activity was found to be 98.7%.

In the case of `Cc1ccc(S(=O)(=O)/C=C/C#N)cc1`, the residual activity amounted to 93.8%.

On to `Cc1ccc(NC2=CC(=O)c3sc(C)nc3C2=O)cc1`, for which the residual activity came to 102%.

The target of another test is PRKX (human) (UniProt P51817). The test is described as above. The conditions noted are these: compound 0.5 µM; ATP 10 µM.
For the compound `CC#CC(=O)Nc1cc2c(Nc3ccc(F)c(Cl)c3)ncnc2cn1`, the residual activity stood at 103%.

In the case of `Cc1ccc(S(=O)(=O)/C=C/C#N)cc1`, the residual activity was found to be 102%.

Take `Cc1ccc(NC2=CC(=O)c3sc(C)nc3C2=O)cc1`: the residual activity turned out to be 96.8%.

The next test has as its target TXK (human) (UniProt P42681). The test is described as above. The conditions noted are these: compound 0.5 µM; ATP 10 µM.
Turning to `CC#CC(=O)Nc1cc2c(Nc3ccc(F)c(Cl)c3)ncnc2cn1`, the residual activity was determined as 1.66%.

With `Cc1ccc(S(=O)(=O)/C=C/C#N)cc1`, the residual activity was 103%.

In the case of `Cc1ccc(NC2=CC(=O)c3sc(C)nc3C2=O)cc1`, the residual activity is 98.8%.

The target of a further test is SGK2 (human) (UniProt Q9HBY8). The description is as above. The conditions noted are these: compound 0.5 µM; ATP 10 µM.
Consider `CC#CC(=O)Nc1cc2c(Nc3ccc(F)c(Cl)c3)ncnc2cn1`, for which the residual activity came out at 98.3%.

In the case of `Cc1ccc(S(=O)(=O)/C=C/C#N)cc1`, the residual activity stood at 112%.

Regarding `Cc1ccc(NC2=CC(=O)c3sc(C)nc3C2=O)cc1`, the residual activity was found to be 94.6%.

The target in another test is EPHA2 (human) (UniProt P29317). The test is described as above. The conditions noted are these: compound 0.5 µM; ATP 10 µM.
Chain of EPHA2 (human) (P29317 whole entry, looked up): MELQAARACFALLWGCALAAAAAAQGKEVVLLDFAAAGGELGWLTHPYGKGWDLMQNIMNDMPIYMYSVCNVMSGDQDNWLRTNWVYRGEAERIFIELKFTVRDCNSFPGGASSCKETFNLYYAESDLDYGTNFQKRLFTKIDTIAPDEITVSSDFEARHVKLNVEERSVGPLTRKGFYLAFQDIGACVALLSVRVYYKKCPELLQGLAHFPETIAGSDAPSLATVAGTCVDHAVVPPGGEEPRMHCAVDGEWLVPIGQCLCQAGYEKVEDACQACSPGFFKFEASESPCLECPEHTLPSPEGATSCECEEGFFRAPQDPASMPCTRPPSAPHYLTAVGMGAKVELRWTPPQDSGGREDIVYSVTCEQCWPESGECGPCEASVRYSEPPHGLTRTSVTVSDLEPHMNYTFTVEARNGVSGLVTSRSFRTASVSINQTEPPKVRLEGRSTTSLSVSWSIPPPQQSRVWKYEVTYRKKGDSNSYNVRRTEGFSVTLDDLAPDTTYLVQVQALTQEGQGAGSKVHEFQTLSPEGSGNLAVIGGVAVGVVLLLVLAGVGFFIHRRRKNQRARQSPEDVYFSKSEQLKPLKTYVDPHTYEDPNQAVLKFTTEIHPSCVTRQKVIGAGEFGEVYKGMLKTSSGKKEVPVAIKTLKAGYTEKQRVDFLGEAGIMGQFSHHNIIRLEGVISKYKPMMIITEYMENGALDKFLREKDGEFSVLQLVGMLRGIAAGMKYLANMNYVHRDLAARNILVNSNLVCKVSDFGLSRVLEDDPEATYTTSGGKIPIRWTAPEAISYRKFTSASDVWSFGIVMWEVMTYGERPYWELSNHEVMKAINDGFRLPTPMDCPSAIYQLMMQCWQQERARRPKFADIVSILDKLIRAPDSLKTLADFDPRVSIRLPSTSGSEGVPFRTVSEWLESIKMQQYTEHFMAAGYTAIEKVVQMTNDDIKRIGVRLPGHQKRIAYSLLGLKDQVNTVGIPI
On to `CC#CC(=O)Nc1cc2c(Nc3ccc(F)c(Cl)c3)ncnc2cn1`, for which the residual activity amounted to 103%.

Take `Cc1ccc(S(=O)(=O)/C=C/C#N)cc1`: the residual activity turned out to be 105%.

Regarding `Cc1ccc(NC2=CC(=O)c3sc(C)nc3C2=O)cc1`, the residual activity was found to be 102%.

For the next test, the target named is CSNK1G1 (human) (UniProt Q9HCP0). The description is as above. The conditions noted are these: compound 0.5 µM; ATP 10 µM.
For the compound `CC#CC(=O)Nc1cc2c(Nc3ccc(F)c(Cl)c3)ncnc2cn1`, the residual activity was 95.5%.

As to `Cc1ccc(S(=O)(=O)/C=C/C#N)cc1`, the residual activity is 101%.

Take `Cc1ccc(NC2=CC(=O)c3sc(C)nc3C2=O)cc1`: the residual activity was determined as 102%.

For the next test, the target named is MAPK12 (human) (UniProt P53778). Described as above. The conditions noted are these: compound 0.5 µM; ATP 10 µM.
Chain of MAPK12 (human) (P53778 whole entry, looked up): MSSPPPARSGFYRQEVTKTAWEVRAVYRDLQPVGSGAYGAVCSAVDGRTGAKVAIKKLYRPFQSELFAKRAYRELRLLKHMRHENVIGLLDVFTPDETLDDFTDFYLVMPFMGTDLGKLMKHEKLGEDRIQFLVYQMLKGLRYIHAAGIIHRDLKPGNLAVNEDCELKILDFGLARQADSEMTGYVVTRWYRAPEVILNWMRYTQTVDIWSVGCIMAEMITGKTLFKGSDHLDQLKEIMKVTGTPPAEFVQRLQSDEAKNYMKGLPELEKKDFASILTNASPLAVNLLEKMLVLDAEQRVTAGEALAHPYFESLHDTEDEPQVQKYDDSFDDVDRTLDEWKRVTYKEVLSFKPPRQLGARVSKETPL
In the case of `CC#CC(=O)Nc1cc2c(Nc3ccc(F)c(Cl)c3)ncnc2cn1`, the residual activity was 99.4%.

Consider `Cc1ccc(S(=O)(=O)/C=C/C#N)cc1`, for which the residual activity turned out to be 90.5%.

For `Cc1ccc(NC2=CC(=O)c3sc(C)nc3C2=O)cc1`, the residual activity is 99.3%.

Another test concerns the target ALK (human) (UniProt Q9UM73). Described as above. The conditions noted are these: compound 0.5 µM; ATP 10 µM.
For `CC#CC(=O)Nc1cc2c(Nc3ccc(F)c(Cl)c3)ncnc2cn1`, the residual activity was 103%.

Turning to `Cc1ccc(S(=O)(=O)/C=C/C#N)cc1`, the residual activity turned out to be 103%.

Turning to `Cc1ccc(NC2=CC(=O)c3sc(C)nc3C2=O)cc1`, the residual activity came to 105%.

In the next test the target is MET (human) (UniProt P08581). Described as above. The conditions noted are these: compound 0.5 µM; ATP 10 µM.
Consider `CC#CC(=O)Nc1cc2c(Nc3ccc(F)c(Cl)c3)ncnc2cn1`, for which the residual activity is 96.3%.

For the compound `Cc1ccc(S(=O)(=O)/C=C/C#N)cc1`, the residual activity is 94.7%.

`Cc1ccc(NC2=CC(=O)c3sc(C)nc3C2=O)cc1`: the residual activity worked out at 99.7%.

A further test addresses DYRK1B (human) (UniProt Q9Y463). The description is as above. The conditions noted are these: compound 0.5 µM; ATP 10 µM.
On to `CC#CC(=O)Nc1cc2c(Nc3ccc(F)c(Cl)c3)ncnc2cn1`, for which the residual activity was found to be 103%.

Regarding `Cc1ccc(S(=O)(=O)/C=C/C#N)cc1`, the residual activity worked out at 101%.

Take `Cc1ccc(NC2=CC(=O)c3sc(C)nc3C2=O)cc1`: the residual activity was found to be 94.6%.

For another test, the target named is CDC42BPB (human) (UniProt Q9Y5S2). The test is described as above. The conditions noted are these: compound 0.5 µM; ATP 10 µM.
As to `CC#CC(=O)Nc1cc2c(Nc3ccc(F)c(Cl)c3)ncnc2cn1`, the residual activity came to 96.4%.

For `Cc1ccc(S(=O)(=O)/C=C/C#N)cc1`, the residual activity was determined as 96.4%.

As for `Cc1ccc(NC2=CC(=O)c3sc(C)nc3C2=O)cc1`, the residual activity stood at 109%.

For a further test, the target named is PIM1 (human) (UniProt P11309). The test is described as above. The conditions noted are these: compound 0.5 µM; ATP 10 µM.
For the compound `CC#CC(=O)Nc1cc2c(Nc3ccc(F)c(Cl)c3)ncnc2cn1`, the residual activity came out at 98.6%.

In the case of `Cc1ccc(S(=O)(=O)/C=C/C#N)cc1`, the residual activity worked out at 101%.

As for `Cc1ccc(NC2=CC(=O)c3sc(C)nc3C2=O)cc1`, the residual activity came to 96.8%.

The next test has as its target WNK3 (human) (UniProt Q9BYP7). The test is described as above. The conditions noted are these: compound 0.5 µM; ATP 10 µM.
For `CC#CC(=O)Nc1cc2c(Nc3ccc(F)c(Cl)c3)ncnc2cn1`, the residual activity worked out at 95.1%.

As for `Cc1ccc(S(=O)(=O)/C=C/C#N)cc1`, the residual activity was determined as 110%.

Take `Cc1ccc(NC2=CC(=O)c3sc(C)nc3C2=O)cc1`: the residual activity stood at 102%.

A further test deals with ULK2 (human) (UniProt Q8IYT8). The description is as above. The conditions noted are these: compound 0.5 µM; ATP 10 µM.
As to `CC#CC(=O)Nc1cc2c(Nc3ccc(F)c(Cl)c3)ncnc2cn1`, the residual activity was found to be 96.7%.

In the case of `Cc1ccc(S(=O)(=O)/C=C/C#N)cc1`, the residual activity came out at 110%.

As for `Cc1ccc(NC2=CC(=O)c3sc(C)nc3C2=O)cc1`, the residual activity was determined as 96.9%.

Another test deals with RPS6KA1 KD1 KD2 (human) (UniProt Q15418). Described as above. The conditions noted are these: compound 0.5 µM; ATP 10 µM.
Chain of RPS6KA1 KD1 KD2 (human) (Q15418 whole entry, looked up): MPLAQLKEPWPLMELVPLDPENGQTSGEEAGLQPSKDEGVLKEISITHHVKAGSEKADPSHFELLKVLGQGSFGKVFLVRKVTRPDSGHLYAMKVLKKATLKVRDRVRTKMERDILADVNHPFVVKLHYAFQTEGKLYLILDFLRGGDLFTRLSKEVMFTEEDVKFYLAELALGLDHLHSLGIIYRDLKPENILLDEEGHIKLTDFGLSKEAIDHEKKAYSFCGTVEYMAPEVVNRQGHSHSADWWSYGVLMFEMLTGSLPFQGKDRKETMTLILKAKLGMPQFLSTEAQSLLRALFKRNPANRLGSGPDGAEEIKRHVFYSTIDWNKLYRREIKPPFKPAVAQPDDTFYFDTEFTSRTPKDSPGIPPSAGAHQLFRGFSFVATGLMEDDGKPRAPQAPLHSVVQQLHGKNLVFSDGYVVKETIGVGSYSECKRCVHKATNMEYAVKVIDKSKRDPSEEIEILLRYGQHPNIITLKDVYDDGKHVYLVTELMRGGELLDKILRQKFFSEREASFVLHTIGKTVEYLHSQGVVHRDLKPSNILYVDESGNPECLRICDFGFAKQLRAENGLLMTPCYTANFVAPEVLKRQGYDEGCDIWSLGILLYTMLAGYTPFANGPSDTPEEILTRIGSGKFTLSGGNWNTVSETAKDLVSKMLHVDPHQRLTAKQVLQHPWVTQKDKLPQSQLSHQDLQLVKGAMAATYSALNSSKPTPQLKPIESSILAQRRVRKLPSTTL
`CC#CC(=O)Nc1cc2c(Nc3ccc(F)c(Cl)c3)ncnc2cn1`: the residual activity amounted to 95.1%.

As for `Cc1ccc(S(=O)(=O)/C=C/C#N)cc1`, the residual activity worked out at 91.6%.

On to `Cc1ccc(NC2=CC(=O)c3sc(C)nc3C2=O)cc1`, for which the residual activity worked out at 102%.

Another test deals with MAP4K5 (human) (UniProt Q9Y4K4). The description is as above. The conditions noted are these: compound 0.5 µM; ATP 10 µM.
Chain of MAP4K5 (human) (Q9Y4K4 whole entry, looked up): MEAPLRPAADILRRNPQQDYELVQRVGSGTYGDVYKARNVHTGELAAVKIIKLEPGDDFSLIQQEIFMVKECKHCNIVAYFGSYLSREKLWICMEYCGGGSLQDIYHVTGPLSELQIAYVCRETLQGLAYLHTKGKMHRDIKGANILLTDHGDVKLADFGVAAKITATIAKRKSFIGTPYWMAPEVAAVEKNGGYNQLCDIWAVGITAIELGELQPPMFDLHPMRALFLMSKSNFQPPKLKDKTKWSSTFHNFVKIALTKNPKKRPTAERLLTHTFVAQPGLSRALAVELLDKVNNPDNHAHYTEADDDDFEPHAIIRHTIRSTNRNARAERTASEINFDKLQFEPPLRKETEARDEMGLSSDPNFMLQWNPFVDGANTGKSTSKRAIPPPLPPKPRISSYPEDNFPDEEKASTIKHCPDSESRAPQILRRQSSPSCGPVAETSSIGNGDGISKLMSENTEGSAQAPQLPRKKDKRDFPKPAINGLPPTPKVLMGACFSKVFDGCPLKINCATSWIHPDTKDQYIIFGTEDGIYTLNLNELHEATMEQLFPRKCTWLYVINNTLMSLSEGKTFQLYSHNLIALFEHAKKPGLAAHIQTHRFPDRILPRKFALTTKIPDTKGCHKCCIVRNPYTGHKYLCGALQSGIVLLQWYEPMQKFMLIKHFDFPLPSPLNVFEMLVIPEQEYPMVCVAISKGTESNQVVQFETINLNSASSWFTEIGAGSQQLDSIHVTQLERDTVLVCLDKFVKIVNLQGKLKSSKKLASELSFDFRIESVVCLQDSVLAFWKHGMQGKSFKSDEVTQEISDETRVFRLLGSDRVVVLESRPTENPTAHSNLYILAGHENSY
For `CC#CC(=O)Nc1cc2c(Nc3ccc(F)c(Cl)c3)ncnc2cn1`, the residual activity came to 100%.

With `Cc1ccc(S(=O)(=O)/C=C/C#N)cc1`, the residual activity came to 97.8%.

`Cc1ccc(NC2=CC(=O)c3sc(C)nc3C2=O)cc1`: the residual activity is 96.9%.

A further test addresses CAMK1 (human) (UniProt Q14012). The test is described as above. The conditions noted are these: compound 0.5 µM; ATP 10 µM.
Turning to `CC#CC(=O)Nc1cc2c(Nc3ccc(F)c(Cl)c3)ncnc2cn1`, the residual activity is 97.9%.

Regarding `Cc1ccc(S(=O)(=O)/C=C/C#N)cc1`, the residual activity stood at 98.8%.

Turning to `Cc1ccc(NC2=CC(=O)c3sc(C)nc3C2=O)cc1`, the residual activity worked out at 87.6%.

A further test has as its target CDK2 CCNA2 (human) (UniProt P24941+P20248). The description is as above. The conditions noted are these: compound 0.5 µM; ATP 10 µM.
For `CC#CC(=O)Nc1cc2c(Nc3ccc(F)c(Cl)c3)ncnc2cn1`, the residual activity was determined as 97.8%.

Turning to `Cc1ccc(S(=O)(=O)/C=C/C#N)cc1`, the residual activity turned out to be 98%.

As to `Cc1ccc(NC2=CC(=O)c3sc(C)nc3C2=O)cc1`, the residual activity turned out to be 88.1%.

In a further test the target is MAPK11 (human) (UniProt Q15759). The description is as above. The conditions noted are these: compound 0.5 µM; ATP 10 µM.
On to `CC#CC(=O)Nc1cc2c(Nc3ccc(F)c(Cl)c3)ncnc2cn1`, for which the residual activity turned out to be 96.2%.

With `Cc1ccc(S(=O)(=O)/C=C/C#N)cc1`, the residual activity was found to be 102%.

Regarding `Cc1ccc(NC2=CC(=O)c3sc(C)nc3C2=O)cc1`, the residual activity was 102%.
